The record followed here is patent US11160750B2, “Composition and method for promoting hair growth” (ZivMas LLC, priority 2017, dated 2021).

For one series, the system named is DHT production. Put plainly: ELISA for DHT detection in male HFDP cells. To be noted: 5 μM testosterone. Type of series: cell-based, human. As to the method: Dihydrotestosterone (DHT) detection was performed using the Aviva Systems Biology dihydrotestosterone ELISA kit (OKEH02531). The technique is based on a competitive binding enzyme immunoassay. 96 well plate has been pre-coated with an antibiotinylated dihydrotestosterone antibody. 50 μl of HFDP cells control and treated samples were added to the wells along with 50 μl of 1× dihydrotestosterone-Biotin complex. After incubation at 37° C. for 60 min wells were washed 3 times with 1× Wash buffer and was added to each well 100 μl of Avidin-HRP conjugate solution. Another step of incubation at 37° C. for 45 min and washing with 1× wash buffer was performed. 90 μl of TMB subtract was added and to each well followed by incubation in dark, 37° C. for 15-30 minutes. Finally, 50 μl of a stop solution was added and the quantification was determined by measuring the optical density at 450 nm in an enzyme-linked immunosorbent assay (Spark, Tecan) reader.
For orientation: ELISA stands for enzyme-linked immunosorbent assay.

Series [1] concerns human follicle derma papilla cells (HFDP). The series can be described thus: Cell proliferation assay in HFDP cells. Format: cell-based. The following applies: 0.5 ug/ml. As to the method: Adherent human cell lines were cultured according to standard mammalian tissue culture protocols and sterile technique. Human follicle derma papilla cells were cultured in human follicle dermal papilla cell growth medium, ready to use, low-serum. Keratinocyte cells (HaCaT) were cultured in high glucose Dulbecco's Modified Eagle Medium with 10% serum. Normal human […] cells such as HFF and BJ were culture in BIOAMF-2 complete medium (Biological industries). All media was supplemented with streptomycin ([…]), penicillin (100 U/ml) and Nystatin (12.5 U/ml). Cells were incubated in 5% CO2 at 37° C. All tissue culture were maintained in 25 cm^2 Nunc™ cell culture treated EasYFlask™ (Thermofisher scientific) and all the media and supplements were obtained from Biological Industries. Treatment were performed by plating cells in a Nunc™ 96 micro well delta surface plates (Thermofisher scientific) in a starting confluence of 0.5×10^4 cells/well. After 24 h of incubation the cells were treated with the ZM-26 composition.
Viability of the cells following treatment was determined using a commercially available MTT assay kit (ABCAM, ab146345) and performed according to manufacturer's instructions. […] The quantification was determined by measuring the optical density at 570 nm in an enzyme-linked immunosorbent assay (Spark, Tecan) reader. […]

Molecules are shown by their SMILES.

With `C[C@]12CC[C@H]3[C@@H](CCC4=CC(=O)CC[C@@]43C)[C@@H]1CC[C@@H]2O` [testosterone], in the series with DHT production, the DHT levels increase stood at 4.4 fold.

Regarding `Nc1cc(N2CCCCC2)nc(N)[n+]1[O-]` [minoxidil], in series [1], the “cell viability after 48 h treatment” value is given as “caused cell death”.
